Experimental data from ChEMBL document CHEMBL1201862, “PubChem BioAssay data set” (2004).
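Values below derive from 48-hour exposures of cells grown in 96-well plates, with endpoints linearly interpolated between the two concentrations bracketing the appropriate inhibition level. The concentration for 50% growth inhibition is given as GI50.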 Calls of active or inactive are those of the source. No stated cut-off is given here; in the data, active = GI50 up to about 1.1 µM and inactive = higher.

Columns and labels:
Assay in all cases: NCI tumour cell line growth inhibition, 48 h
[1] = test system: DU-145
[2] = test system: BT-549
[3] = test system: UACC-62
[4] = test system: SNB-19
[5] = test system: NCI-H23
[6] = test system: SF-268
[7] = test system: HCC 2998
[8] = test system: OVCAR-3
[9] = test system: SN12C
[10] = test system: T47D
[11] = test system: Malme-3M
[12] = test system: K562
[13] = test system: SK-OV-3
[14] = test system: HCT-15
[15] = test system: MCF7
[16] = test system: RPMI-8226
[17] = test system: SK-MEL-28
[18] = test system: HL-60
[19] = test system: U-251
[20] = test system: SNB-75
[21] = test system: SR
[22] = test system: Hs-578T
[23] = test system: NCI-H522
[24] = test system: NCI-H226
[25] = test system: A549
[26] = test system: KM12
[27] = test system: 786-0
[28] = test system: LOX IMVI
[29] = test system: SF-295
[30] = test system: HT-29
[31] = test system: UO-31
[32] = test system: OVCAR-5
[33] = test system: M14
[34] = test system: CAKI-1
[35] = test system: ACHN
[36] = test system: HOP-62
[37] = test system: OVCAR-4
[38] = test system: MDA-MB-435
[39] = test system: SK-MEL-2
[40] = test system: IGROV-1
[41] = test system: MOLT-4
[42] = test system: A498
[43] = test system: SW-620
[44] = test system: TK-10
[45] = test system: SK-MEL-5
[46] = test system: COLO 205
[47] = test system: MDA-MB-231
[48] = test system: PC-3
[49] = test system: SF-539
[50] = test system: MDA-N
[51] = test system: EKVX
[52] = test system: HCT-116
[53] = test system: UACC-257
[54] = test system: NCI-H460
[55] = test system: OVCAR-8
[56] = test system: NCI/ADR-RES
[57] = test system: HOP-92
[58] = test system: CCRF-CEM
[59] = test system: RXF 393

## Cc1c2c(n(CCc3ccc(Cl)cc3)c1C)NC(c1ccccc1)C(C#N)S2(=O)=O (stereo not given)
[1]
  GI50: > 60 µM (inactive)
[2]
  GI50: 37 µM (inactive)
[3]
  GI50: 36.6 µM (inactive)
[4]
  GI50: > 100 µM (inactive)
[5]
  GI50: > 47.9 µM (inactive)
[6]
  GI50: 40.2 µM (inactive)
[7]
  GI50: > 100 µM (inactive)
[8]
  GI50: > 91.2 µM (inactive)
[9]
  GI50: > 72.1 µM (inactive)
[10]
  GI50: 17.9 µM (inactive)
[11]
  GI50: 20.5 µM (inactive)
[12]
  GI50: 5.14 µM (inactive)
[13]
  GI50: > 90.6 µM (inactive)
[14]
  GI50: > 48 µM
[15]
  GI50: 5.14 µM (inactive)
[16]
  GI50: 3.51 µM (inactive)
[17]
  GI50: > 76.6 µM (inactive)
[18]
  GI50: 7 µM (inactive)
[19]
  GI50: 38.2 µM (inactive)
[20]
  GI50: 44.7 µM (inactive)
[21]
  GI50: 3.22 µM (inactive)
[22]
  GI50: 26.1 µM (inactive)
[23]
  GI50: 11.7 µM (inactive)
[24]
  GI50: > 59.7 µM (inactive)
[25]
  GI50: 22.5 µM (inactive)
[26]
  GI50: 18.3 µM (inactive)
[27]
  GI50: 32.3 µM (inactive)
[28]
  GI50: 24.5 µM (inactive)
[29]
  GI50: > 53.5 µM (inactive)
[30]
  GI50: 11.9 µM (inactive)
[31]
  GI50: 13.9 µM (inactive)
[32]
  GI50: > 100 µM (inactive)
[33]
  GI50: 27.2 µM (inactive)
[34]
  GI50: > 100 µM (inactive)
[35]
  GI50: > 100 µM (inactive)
[36]
  GI50: > 79.4 µM (inactive)
[37]
  GI50: > 70.1 µM (inactive)
[38]
  GI50: 11.1 µM (inactive)
[39]
  GI50: 22.4 µM (inactive)
[40]
  GI50: 17.2 µM (inactive)
[41]
  GI50: 3.24 µM (inactive)
[42]
  GI50: > 85.7 µM (inactive)
[43]
  GI50: > 45.9 µM (inactive)
[44]
  GI50: > 100 µM (inactive)
[45]
  GI50: 3.95 µM (inactive)
[46]
  GI50: 8.36 µM (inactive)
[47]
  GI50: 11.5 µM (inactive)
[48]
  GI50: 19.6 µM (inactive)
[49]
  GI50: 34.8 µM (inactive)
[50]
  GI50: 19.9 µM (inactive)
[51]
  GI50: 31.3 µM (inactive)
[52]
  GI50: 15.2 µM (inactive)
[53]
  GI50: 58.6 µM (inactive)
[54]
  GI50: 44.1 µM (inactive)
[55]
  GI50: 47 µM (inactive)
[56]
  GI50: > 63 µM (inactive)
[57]
  GI50: 17.5 µM (inactive)
[58]
  GI50: 2.08 µM (inactive)

## C/C(=N\Nc1nc2ccccc2o1)c1cccc[n+]1[O-]
[1]
  GI50: 27.8 µM (inactive)
[2]
  GI50: 81.7 µM (inactive)
[3]
  GI50: 46.1 µM (inactive)
[4]
  GI50: 64.7 µM (inactive)
[5]
  GI50: 26.6 µM (inactive)
[6]
  GI50: 19.1 µM (inactive)
[7]
  GI50: 0.0769 µM (active)
[8]
  GI50: 2.69 µM (inactive)
[9]
  GI50: 18.6 µM (inactive)
[10]
  GI50: 2.89 µM (inactive)
[11]
  GI50: 2.27 µM (inactive)
[12]
  GI50: 7.23 µM (inactive)
[13]
  GI50: 22.5 µM (inactive)
[14]
  GI50: 4.88 µM
[15]
  GI50: 5.98 µM (inactive)
[16]
  GI50: 12 µM (inactive)
[17]
  GI50: 24.8 µM (inactive)
[19]
  GI50: 8.26 µM (inactive)
[21]
  GI50: 6.19 µM (inactive)
[22]
  GI50: > 100 µM (inactive)
[23]
  GI50: 3.86 µM (inactive)
[24]
  GI50: 45.7 µM (inactive)
[25]
  GI50: 24.5 µM (inactive)
[26]
  GI50: 23.2 µM (inactive)
[27]
  GI50: 21.7 µM (inactive)
[28]
  GI50: 13.4 µM (inactive)
[29]
  GI50: 0.0877 µM (active)
[30]
  GI50: 5.13 µM (inactive)
[31]
  GI50: 4.45 µM (inactive)
[32]
  GI50: 11.4 µM (inactive)
[33]
  GI50: 5.87 µM (inactive)
[34]
  GI50: 2.69 µM (inactive)
[35]
  GI50: 12.6 µM (inactive)
[36]
  GI50: 10.5 µM (inactive)
[37]
  GI50: 5.45 µM (inactive)
[38]
  GI50: 44 µM (inactive)
[39]
  GI50: > 100 µM (inactive)
[40]
  GI50: 16.1 µM (inactive)
[41]
  GI50: 1.5 µM (inactive)
[42]
  GI50: 45.1 µM (inactive)
[43]
  GI50: 5.12 µM (inactive)
[44]
  GI50: 3.52 µM (inactive)
[45]
  GI50: 23.9 µM (inactive)
[46]
  GI50: 4.73 µM (inactive)
[47]
  GI50: 60.3 µM (inactive)
[48]
  GI50: 5.36 µM (inactive)
[49]
  GI50: 23.4 µM (inactive)
[50]
  GI50: 60.7 µM (inactive)
[51]
  GI50: 11 µM (inactive)
[52]
  GI50: 4.84 µM (inactive)
[53]
  GI50: 13 µM (inactive)
[54]
  GI50: 9.18 µM (inactive)
[59]
  GI50: 24.6 µM (inactive)
[55]
  GI50: 20 µM (inactive)
[56]
  GI50: 3.6 µM (inactive)
[57]
  GI50: 2.53 µM (inactive)
[58]
  GI50: 4.3 µM (inactive)
